# According to US9101609B2, “CD37 immunotherapeutic and combination with bifunctional chemotherapeutic thereof” (EMERGENT PRODUCT DEVELOPMENT SEATTLE, LLC, priority 2008, dated 2015):
# Entries after “also recorded” stand apart in the source; their conditions may differ. Marks after values point to notes of the source that are not given here.
# Tests used:
# [1] = test system: DOHH2 human tumor xenograft; assay: CAS024 combined with bendamustine in subcutaneous DOHH2 xenografts in SCID mice; assay type: in vivo; details: CAS024 10 μg IV days 0, 4, 8; Bendamustine 10 mg/kg IP days 0, 2, 4, 7, 9
# Procedure: Establishment of tumor xenografts and sorting into treatment groups.
# Monitoring and endpoints. Mice were monitored daily by visual inspection. […] Tumor volumes were calculated as described above.
# Rec-1 cells [2] = assay: Rec-1 growth inhibition (ATPlite), combination index with bendamustine; assay type: cell-based, human; details: crosslinked CAS024 combined with bendamustine; 96 hr
# Procedure: (§1) The final volume in each well was 150 μL.
# Rec-1 cells [3] = assay: Rec-1 growth inhibition (ATP viable cell detection), combination index with chemotherapeutic agents; assay type: cell-based, human; details: 96 hours
# Procedure: Rec-1 cells, a CD37+ human B cell line established from a patient with mantle cell lymphoma, were tested for growth inhibition in response to crosslinked CAS-024 in the presence or absence of doxorubicin, vincristine, or fludarabine (see FIG. 7). CAS-024 was preincubated with anti-human IgG F(ab)′2 to crosslink the protein. Cells were cultured with medium alone or with medium containing various concentrations of the crosslinked CAS-024 protein, in the presence or absence of various concentrations of doxorubicin, vincristine, or fludarabine. Cultures were incubated for 96 hours and growth inhibition was assessed using an ATP viable cell detection system (i.e., viable cells quantified by ATP release).
# A numerical value, assigned to each drug combination at predefined dose levels, enabled quantitative drug/drug interaction comparisons between different drug combinations. Results were expressed as combination indices (CI) vs. effect level, in which effect level represented percent inhibition of cell growth. The mean CI±SEM for each effect level was averaged over three experiments. A CI<1.0 was considered synergy, CI=1.0 additivity, and CI>1.0 antagonism.
# [4] = test system: DOHH2 human tumor xenograft; assay: Dose response in established subcutaneous DOHH2 xenograft model in SCID mice; details: days 0, 4, 8
# Procedure: The objective of this experiment was to examine the dose response to treatment with CAS-024 in a model of established subcutaneous human tumor (DOHH2) xenograft model in SCID mice.
# On day 8 post-tumor inoculation, palpable tumors were apparent in a majority of mice. The tumor-bearing mice were sorted into four groups with equivalent mean tumor volumes (n=14 per group; 2 cages of 5 mice and 1 cage of 4 mice for each group). The day of the sort was defined as day 0. Tumor diameters were determined with a pair of calipers and tumor volumes were calculated using the formula: V=½[length×(width)^2].
# Tumor-bearing groups of SCID mice were treated on days 0, 4, and 8 via IP injection of 0.2 mL of PBS containing 200 μg of huIgG (negative control) or 200, 100, 30, 10, or 3 μg of CAS-024. The two lowest dose solutions of CAS-024 were prepared on the day of injection to avoid the need to add a carrier protein to the most dilute solutions.
# Dose solutions were prepared in similar volumes and the contents of the tubes were noted on removable labels. An investigator who was not treating or assessing the mice placed a color code on each tube and noted the code and identity of the tube contents in a laboratory notebook. Mice were monitored daily by visual inspection. Weights were determined weekly, and tumor diameters were determined at least 3 times per week (M, W, F) by an observer blinded (see above) to the treatment groups. Tumor volumes were calculated as described above. Mice were euthanized if their tumor volume reached more than 1500 mm^3 (or 1200 mm^3 on Fridays). Death was not an endpoint in the tumor protocols and, unless noted otherwise, “survival” of a mouse was determined by the time it was euthanized due to its tumor volume reaching the predetermined limits.
# All statistical analyses were performed using GraphPad Prism software. Significant differences in mean tumor volumes and mean relative tumor volumes were determined using a one-way ANOVA for nonparametric data (Kruskal-Wallis test) with Dunn's multiple comparison post test. To examine differences between each of the CAS-024 treated groups and the huIgG group, all groups were compared. For comparisons between the CAS-024 groups only, the huIgG group was excluded. In addition, the high and middle dose (200, 100, and 30 μg) groups were analyzed as a one data set, and the middle and low dose (30, 10, and 3 μg) groups were analyzed as another data set. Significant differences in survival of mice over time were determined using Kaplan-Meier survival analysis with a log-rank test for comparing survival curves. Significant differences in the incidence of tumor-free mice were determined using Fisher's exact test. p values<0.05 were considered significant.
# SU-DHL-6 cells = assay: SU-DHL-6 growth inhibition (ATPlite), combination index; assay type: cell-based, human
# Procedure: as §1
# [5] = test system: DOHH2 human tumor xenograft; assay: CAS-024 and Rituxan as single agents in established DOHH2 xenograft model in SCID mice; assay type: in vivo; details: for Death (other than for Tumor Size Sacrifice) / Median Survival Time: 200 μg IP days 0, 4, 8; for Median Survival Time: cumulative 600 μg; for mean tumor volume compared with human IgG treated group: 200 μg IP, day 4 through day 11
# Procedure: The objective of this study was to examine the efficacy of CAS-024 and RITUXAN® (rituximab) as single agents in a model of established human tumor (DOHH2) xenografts in SCID mice.
# Mice were monitored daily by visual inspection. […] Tumor volumes were calculated as described above. Tumor volumes on the last day that all mice were alive in each group were also expressed in terms of tumor volumes relative to day 0, using the formula: […]
# CD37 [6] = molecular target: T1, CD37 (Homo sapiens, UniProt P11049); assay: FMAT competition binding assay against labeled CAS-006 on Ramos cells; set-up: CD-37 found on Ramos cells (a B-lymphoblastoid cell line derived from a Burkitt lymphoma); endogenous in cells; host or cells: Ramos cells
# T1 sequence (P11049 1-281): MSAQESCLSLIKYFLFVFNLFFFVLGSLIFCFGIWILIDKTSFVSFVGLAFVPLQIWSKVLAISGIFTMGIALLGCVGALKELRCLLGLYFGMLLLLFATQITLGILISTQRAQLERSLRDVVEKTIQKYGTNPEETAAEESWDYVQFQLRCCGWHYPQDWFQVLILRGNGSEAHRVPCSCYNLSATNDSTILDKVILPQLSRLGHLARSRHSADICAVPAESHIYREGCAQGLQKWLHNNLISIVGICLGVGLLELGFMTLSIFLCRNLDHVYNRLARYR
# From the text: A competition assay was used to compare the binding affinity of different anti-CD37 specific small modular immunopharmaceutical (SMIP) molecules to CD-37 found on Ramos cells (a B-lymphoblastoid cell line derived from a Burkitt lymphoma). An SEC purified chimeric anti-CD37 SMIP molecule (CAS-006, SEQ ID NO:247) was labeled with the FMAT Blue® fluorescence dye (Applied Biosystems) and used as the standard to compete with purified unlabeled chimeric anti-CD37 SMIP molecule (positive control) and purified unlabeled humanized anti-CD37 SMIP test molecules. […] The plates were incubated at room temperature for 30 min and read on an 8200 Cellular Detection System (Applied Biosystems) gated for middle cell size and low signal.
# A competition assay as described in Example 4 was used to compare the binding affinity of different mouse-human hybrid anti-CD37 SMIP molecules compared to CAS-024 binding to Ramos cells. An SEC purified chimeric anti-CD37 SMIP molecule (CAS-006, SEQ ID NO:247) was labeled with the FMAT Blue® fluorescence dye (Applied Biosystems) and used as the standard to compete with purified unlabeled chimeric anti-CD37 SMIP molecule (CAS-006, positive control) and purified unlabeled humanized anti-CD37 SMIP test molecules—-CAS-002 (SEQ ID NO:48), CAS-003 (SEQ ID NO:52), CAS-014 (SEQ ID NO:251), CAS-017 (SEQ ID NO:252), and CAS-024 (SEQ ID NO:253).
# CD37 [7] = molecular target: T1, CD37; assay: FACS competitive binding / cross blocking of FITC-conjugated anti-CD37 on BJAB cells; details: FIGS. 5A-5E
# Procedure: FITC labeled antibody conjugates were titrated from 10 ng/mL to 10 μg/mL in an initial binding study to determine the optimal amount to use in the blocking studies. The level chosen was just below saturating amounts, and was kept constant in the subsequent assays, while levels of blocking antibody were increased over a 10-fold range. Data were plotted as percent of maximal binding versus concentration of blocking antibody, so that higher levels indicate less efficient blocking, while lower levels indicate more efficient blocking activity.
# For competitive binding assays, 2.5×10^5 BJAB cells were incubated in 96-well V-bottom plates in staining media (PBS with 2% mouse sera) with the FITC-conjugated anti-CD37 mAbs at 1.25 μg/mL in the presence of unconjugated anti-CD37 MAb at the indicated concentrations (2.5, 1.25, 0.6, or 0.3 μg/ml) or staining media for 45 minutes on ice in the dark. Blocking antibodies and FITC labeled antibody conjugates were added to reactions prior to addition of cells. The cells were then washed […] with PBS and fixed with 1% paraformaldehyde (USB, Cleveland, Ohio). The treated cells were analyzed by flow cytometry using a FACsCalibur instrument and CellQuest software (BD Biosciences, San Jose, Calif.). […]
# [8] = test system: chronic lymphocytic leukemia (CLL) cells; details: in vitro; cited from earlier work
compound,measurement,setting,value
"G28-1 VH (M99F, Y102S)—VL (T25A) scFv (SSC-P) H WCH2 WCH3 [CAS-024]",Median Survival Time,[1],17^b Days
same,clinical signs of toxicity,[1],No clinical signs of toxicity
same,combination effect on target cell growth (CI),Rec-1 cells [2],synergistic inhibitory effects
same,combination index (CI),Rec-1 cells [3]; crosslinked CAS-024 combined with doxorubicin,additive
same,combination index (CI),Rec-1 cells [3]; crosslinked CAS-024 combined with fludarabine,< 1.0
same,combination index (CI),Rec-1 cells [3]; crosslinked CAS-024 combined with vincristine,< 1.0
same,Death (Not Due to Large Tumor Volume),[4]; 3 μg per IP injection,0/14
same,Median Survival Time,"[4]; 3 μg per IP injection, cumulative 9 μg",19 days
same,Death (Not Due to Large Tumor Volume),[4]; 10 μg per IP injection,0/14
same,Median Survival Time,"[4]; 10 μg per IP injection, cumulative 30 μg",28 days
same,Death (Not Due to Large Tumor Volume),[4]; 30 μg per IP injection,0/14
same,Median Survival Time,"[4]; 30 μg per IP injection, cumulative 90 μg",35 days
same,Death (Not Due to Large Tumor Volume),[4]; 100 μg per IP injection,1/14^h
same,Median Survival Time,"[4]; 100 μg per IP injection, cumulative 300 μg",Undefined
same,Death (Not Due to Large Tumor Volume),[4]; 200 μg per IP injection,0/14
same,Median Survival Time,"[4]; 200 μg per IP injection, cumulative 600 μg",Undefined^ef
same,effect on the growth of DOHH2 tumors,[4]; 3 to 200 μg per IP injection,dose-dependent inhibitory effect
same,combination effect on cell growth (CI),SU-DHL-6 cells; CAS-024 combined with chlorambucil,did not result in synergistic inhibitory effects
same,combination effect on cell growth (CI),"SU-DHL-6 cells; crosslinked CAS024 combined with bendamustine, 96 hr",synergistically inhibited
same,Death (other than for Tumor Size Sacrifice),[5],1/15^f
same,Median Survival Time,[5],"Undefined^d,e"
same,mean tumor volume compared with human IgG treated group,[5],significantly lower than that of the human IgG treated group
same,greater affinity for CD37 than humanized VLVH anti-CD37 SMIP molecules with 16 amino acid linker,CD37 [6]; FIG. 3,≤ 4 fold
same,binding affinity for CD37 compared with parent CAS-006,CD37 [6]; competition with FMAT Blue labeled CAS-006,substantially the same affinity; also recorded: same binding affinity as CAS-006
"Cn1c(CCCC(=O)O)nc2cc(N(CCCl)CCCl)ccc21 [Bendamustine, 4-[5-[Bis(2-chloroethyl)amino]-1-methylbenzimidazol-2-yl]butanoic acid, reference compound]",Median Survival Time,[1],17 days
same,clinical signs of toxicity,[1],scruffy coats and diarrhea
"rituximab [Rituxan ®, reference compound]",Death (other than for Tumor Size Sacrifice),[5],0/15
same,Median Survival Time,[5],43 days
same,mean tumor volume compared with human IgG treated group,[5],significantly lower than that of the human IgG treated group
"CAS-006: chimeric anti-CD37 SMIP protein (mVLmVH) with variable regions of mouse mAb G28-1, SEQ ID NO:247",blocking activity (inhibition of binding of FITC-conjugated anti-CD37),CD37 [7],highest level of blocking activity
same,combination effect with fludarabine on killing of CLL cells,[8],acts synergistically
